Test results published in the CheMixHub viscosity set.
Several values for one entry are separate records, joined by “and”; a condition that tells them apart may be missing. Equal entries are not always repeated. ± gives the uncertainty stated by the source.

Experiment: xn = mol fraction of the nth substance listed
Details: 101 kPa

CC(C)[C@H](N)C(=O)O + O
Details	viscosity
293.15 K, x1 = 0.005375	1.137 ± 0.024 mPa·s
293.15 K, x1 = 0.007154	1.185 ± 0.025 mPa·s
293.15 K, x1 = 0.008925	1.236 ± 0.026 mPa·s
298.15 K, x1 = 0.0001	0.9194 ± 0.043 mPa·s and 0.9194 ± 0.031 mPa·s
298.15 K, x1 = 0.0004318	0.9217 ± 0.043 mPa·s and 0.9217 ± 0.031 mPa·s
298.15 K, x1 = 0.00045	0.8955 ± 0.021 mPa·s
298.15 K, x1 = 0.0006308	0.9343 ± 0.044 mPa·s and 0.9343 ± 0.031 mPa·s
298.15 K, x1 = 0.0009	0.9038 ± 0.021 mPa·s
298.15 K, x1 = 0.001048	0.9493 ± 0.045 mPa·s and 0.9493 ± 0.031 mPa·s
298.15 K, x1 = 0.00135	0.9129 ± 0.021 mPa·s
298.15 K, x1 = 0.001416	0.9595 ± 0.045 mPa·s and 0.9595 ± 0.031 mPa·s
298.15 K, x1 = 0.001787	0.9689 ± 0.046 mPa·s and 0.9689 ± 0.031 mPa·s
298.15 K, x1 = 0.0018	0.9222 ± 0.021 mPa·s
298.15 K, x1 = 0.002245	0.9318 ± 0.021 mPa·s
298.15 K, x1 = 0.002695	0.9413 ± 0.022 mPa·s
298.15 K, x1 = 0.003711	0.9967 ± 0.047 mPa·s and 0.9967 ± 0.031 mPa·s
298.15 K, x1 = 0.005362	1.026 ± 0.048 mPa·s and 1.026 ± 0.031 mPa·s
298.15 K, x1 = 0.007185	1.05 ± 0.049 mPa·s and 1.05 ± 0.031 mPa·s
303.15 K, x1 = 0.0004	0.803 ± 0.007 mPa·s
303.15 K, x1 = 0.00045	0.8023 ± 0.018 mPa·s
303.15 K, x1 = 0.0007	0.808 ± 0.007 mPa·s
303.15 K, x1 = 0.0009	0.8101 ± 0.019 mPa·s
303.15 K, x1 = 0.001	0.814 ± 0.007 mPa·s and 0.821 ± 0.007 mPa·s
303.15 K, x1 = 0.00135	0.8187 ± 0.019 mPa·s
303.15 K, x1 = 0.0018	0.8274 ± 0.019 mPa·s
303.15 K, x1 = 0.002245	0.8364 ± 0.019 mPa·s
303.15 K, x1 = 0.002695	0.8456 ± 0.019 mPa·s
303.15 K, x1 = 0.003592	0.861 ± 0.018 mPa·s
303.15 K, x1 = 0.005375	0.8951 ± 0.019 mPa·s
303.15 K, x1 = 0.007154	0.9297 ± 0.02 mPa·s
303.15 K, x1 = 0.008925	0.9658 ± 0.02 mPa·s
308.15 K, x1 = 0.0001	0.7889 ± 0.037 mPa·s and 0.7889 ± 0.031 mPa·s
308.15 K, x1 = 0.0004318	0.7978 ± 0.038 mPa·s and 0.7978 ± 0.031 mPa·s
308.15 K, x1 = 0.00045	0.7239 ± 0.017 mPa·s
308.15 K, x1 = 0.0006308	0.8045 ± 0.038 mPa·s and 0.8045 ± 0.031 mPa·s
308.15 K, x1 = 0.001048	0.8147 ± 0.038 mPa·s and 0.8147 ± 0.031 mPa·s
308.15 K, x1 = 0.00135	0.7396 ± 0.017 mPa·s
308.15 K, x1 = 0.001416	0.8249 ± 0.039 mPa·s and 0.8249 ± 0.031 mPa·s
308.15 K, x1 = 0.001787	0.8389 ± 0.04 mPa·s and 0.8389 ± 0.031 mPa·s
308.15 K, x1 = 0.0018	0.7478 ± 0.017 mPa·s
308.15 K, x1 = 0.002245	0.7561 ± 0.017 mPa·s
308.15 K, x1 = 0.002695	0.7648 ± 0.017 mPa·s
308.15 K, x1 = 0.003711	0.8751 ± 0.041 mPa·s and 0.8751 ± 0.031 mPa·s
308.15 K, x1 = 0.005362	0.9003 ± 0.043 mPa·s and 0.9003 ± 0.031 mPa·s
308.15 K, x1 = 0.007185	0.9207 ± 0.043 mPa·s and 0.9207 ± 0.031 mPa·s
313.15 K, x1 = 0.00045	0.6573 ± 0.015 mPa·s
313.15 K, x1 = 0.0009	0.6645 ± 0.015 mPa·s
313.15 K, x1 = 0.00135	0.6722 ± 0.015 mPa·s
313.15 K, x1 = 0.0018	0.6799 ± 0.016 mPa·s
313.15 K, x1 = 0.001804	0.6773 ± 0.014 mPa·s
313.15 K, x1 = 0.002245	0.6878 ± 0.016 mPa·s
313.15 K, x1 = 0.002695	0.696 ± 0.016 mPa·s
313.15 K, x1 = 0.003592	0.7008 ± 0.015 mPa·s
313.15 K, x1 = 0.005375	0.7269 ± 0.015 mPa·s
313.15 K, x1 = 0.007154	0.752 ± 0.016 mPa·s
318.15 K, x1 = 0.0001	0.6823 ± 0.032 mPa·s and 0.6823 ± 0.031 mPa·s
318.15 K, x1 = 0.0004318	0.6985 ± 0.033 mPa·s and 0.6985 ± 0.031 mPa·s
318.15 K, x1 = 0.00045	0.6017 ± 0.014 mPa·s
318.15 K, x1 = 0.0006308	0.7009 ± 0.033 mPa·s and 0.7009 ± 0.031 mPa·s
318.15 K, x1 = 0.001048	0.7128 ± 0.034 mPa·s and 0.7128 ± 0.031 mPa·s
318.15 K, x1 = 0.00135	0.6159 ± 0.014 mPa·s
318.15 K, x1 = 0.001416	0.7308 ± 0.035 mPa·s and 0.7308 ± 0.031 mPa·s
318.15 K, x1 = 0.001787	0.7418 ± 0.035 mPa·s and 0.7418 ± 0.031 mPa·s
318.15 K, x1 = 0.0018	0.6233 ± 0.014 mPa·s
318.15 K, x1 = 0.002245	0.631 ± 0.015 mPa·s
318.15 K, x1 = 0.002695	0.6386 ± 0.015 mPa·s
318.15 K, x1 = 0.003711	0.7743 ± 0.037 mPa·s and 0.7743 ± 0.031 mPa·s
318.15 K, x1 = 0.005362	0.7995 ± 0.038 mPa·s and 0.7995 ± 0.031 mPa·s
318.15 K, x1 = 0.007185	0.8105 ± 0.038 mPa·s and 0.8105 ± 0.031 mPa·s
323.15 K, x1 = 0.001804	0.5656 ± 0.012 mPa·s
323.15 K, x1 = 0.003592	0.5841 ± 0.012 mPa·s
323.15 K, x1 = 0.008925	0.6454 ± 0.014 mPa·s

CCC(C)(C)O + O
298.15 K
Details	viscosity [mPa·s]
x2 = 0.0042	3.548 ± 0.033
x2 = 0.0429	3.711 ± 0.036
x2 = 0.0863	3.875 ± 0.04
x2 = 0.124	3.987 ± 0.043
x2 = 0.1654	4.122 ± 0.047
x2 = 0.197	4.218 ± 0.05
x2 = 0.214	4.269 ± 0.051
x2 = 0.2583	4.388 ± 0.056
x2 = 0.2775	4.443 ± 0.058

Cn1cc[n+](CCC[n+]2ccccc2)c1.[Br-].[Br-] + O
viscosity [mPa·s]
Details	293.15 K	298.15 K	303.15 K	308.15 K	313.15 K
x1 = 0.0003405	1.016 ± 0.022	0.905 ± 0.019	0.811 ± 0.017	0.734 ± 0.016	0.667 ± 0.014
x1 = 0.0004322	1.019 ± 0.022	0.907 ± 0.019	0.814 ± 0.017	0.737 ± 0.016	0.669 ± 0.014
x1 = 0.0005421	1.021 ± 0.022	0.909 ± 0.019	0.816 ± 0.017	0.739 ± 0.016	0.672 ± 0.014
x1 = 0.000689	1.023 ± 0.022	0.911 ± 0.019	0.819 ± 0.017	0.742 ± 0.016	0.675 ± 0.014
x1 = 0.0008251	1.032 ± 0.022	0.918 ± 0.02	0.827 ± 0.018	0.744 ± 0.016	0.678 ± 0.014
x1 = 0.0009589	1.035 ± 0.022	0.921 ± 0.02	0.829 ± 0.018	0.747 ± 0.016	0.681 ± 0.015
x1 = 0.001109	1.038 ± 0.022	0.924 ± 0.02	0.832 ± 0.018	0.749 ± 0.016	0.684 ± 0.015
x1 = 0.00128	1.041 ± 0.022	0.927 ± 0.02	0.835 ± 0.018	0.752 ± 0.016	0.687 ± 0.015
x1 = 0.001457	1.043 ± 0.022	0.93 ± 0.02	0.837 ± 0.018	0.755 ± 0.016	0.689 ± 0.015
x1 = 0.001664	1.047 ± 0.022	0.933 ± 0.02	0.839 ± 0.018	0.758 ± 0.016	0.691 ± 0.015
x1 = 0.001904	1.05 ± 0.022	0.936 ± 0.02	0.841 ± 0.018	0.761 ± 0.016	0.693 ± 0.015
x1 = 0.002122	1.053 ± 0.022	0.939 ± 0.02	0.843 ± 0.018	0.763 ± 0.016	0.696 ± 0.015
x1 = 0.002357	1.057 ± 0.022	0.942 ± 0.02	0.846 ± 0.018	0.766 ± 0.016	0.699 ± 0.015
